Reference: the supplement of paper PMC11451515

System: NOMO1
Test: cell viability relative to DMSO control; higher = less cytotoxic
Settings: 48 h
Outline: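 Viability is a per-plate percentage relative to DMSO wells, with cell-free wells as background. CellTiter-Glo One luminescence was read after 48 h at 37°C on 1536-well plates (5 μl) of NOMO1 or SEM (500 cells/well) or P12-Ichikawa (1000 cells/well) leukemia cells. The cells had been adapted for at least four passages in each medium and pin-dosed with library compounds in DMSO from 47 μM to 0.79 nM in 11 threefold steps.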

[1] = RPMI 5 mM glucose + 10% FBS, 0.000781 µM
[2] = RPMI 5 mM glucose + 10% FBS, 0.00234 µM
[3] = RPMI 5 mM glucose + 10% FBS, 0.00702 µM
[4] = RPMI 5 mM glucose + 10% FBS, 0.0211 µM
[5] = RPMI 5 mM glucose + 10% FBS, 0.0632 µM
[6] = RPMI 5 mM glucose + 10% FBS, 0.19 µM
[7] = RPMI 5 mM glucose + 10% FBS, 0.569 µM
[8] = RPMI 5 mM glucose + 10% FBS, 1.71 µM
[9] = RPMI 5 mM glucose + 10% FBS, 5.12 µM
[10] = RPMI 5 mM glucose + 10% FBS, 15.4 µM
[11] = RPMI 5 mM glucose + 10% FBS, 46.1 µM
[12] = HPLM + 10% dialyzed FBS, 0.000781 µM
[13] = HPLM + 10% dialyzed FBS, 0.00234 µM
[14] = HPLM + 10% dialyzed FBS, 0.00702 µM
[15] = HPLM + 10% dialyzed FBS, 0.0211 µM
[16] = HPLM + 10% dialyzed FBS, 0.0632 µM
[17] = HPLM + 10% dialyzed FBS, 0.19 µM
[18] = HPLM + 10% dialyzed FBS, 0.569 µM
[19] = HPLM + 10% dialyzed FBS, 1.71 µM
[20] = HPLM + 10% dialyzed FBS, 5.12 µM
[21] = HPLM + 10% dialyzed FBS, 15.4 µM
[22] = HPLM + 10% dialyzed FBS, 46.1 µM
[23] = RPMI 5 mM glucose + 10% dialyzed FBS, 0.000781 µM
[24] = RPMI 5 mM glucose + 10% dialyzed FBS, 0.00234 µM
[25] = RPMI 5 mM glucose + 10% dialyzed FBS, 0.00702 µM
[26] = RPMI 5 mM glucose + 10% dialyzed FBS, 0.0211 µM
[27] = RPMI 5 mM glucose + 10% dialyzed FBS, 0.0632 µM
[28] = RPMI 5 mM glucose + 10% dialyzed FBS, 0.19 µM
[29] = RPMI 5 mM glucose + 10% dialyzed FBS, 0.569 µM
[30] = RPMI 5 mM glucose + 10% dialyzed FBS, 1.71 µM
[31] = RPMI 5 mM glucose + 10% dialyzed FBS, 5.12 µM
[32] = RPMI 5 mM glucose + 10% dialyzed FBS, 15.4 µM
[33] = RPMI 5 mM glucose + 10% dialyzed FBS, 46.1 µM

Row | SMILES | cell viability [1] | cell viability [2] | cell viability [3] | cell viability [4] | cell viability [5] | cell viability [6] | cell viability [7] | cell viability [8] | cell viability [9] | cell viability [10] | cell viability [11] | cell viability [12] | cell viability [13] | cell viability [14] | cell viability [15] | cell viability [16] | cell viability [17] | cell viability [18] | cell viability [19] | cell viability [20] | cell viability [21] | cell viability [22] | cell viability [23] | cell viability [24] | cell viability [25] | cell viability [26] | cell viability [27] | cell viability [28] | cell viability [29] | cell viability [30] | cell viability [31] | cell viability [32] | cell viability [33]
1 | CC(C)C[C@@H](C=O)NC(=O)[C@H](CC(C)C)NC(=O)[C@H](CC(C)C)NC(=O)OCc1ccccc1 | 115% | 119% | 130% | 143% | 134% | 128% | 78.1% | 42.1% | 10.2% | 8.45% | 7.38% | – | – | – | – | – | – | – | – | – | – | – | – | – | – | – | – | – | – | – | – | – | –
2 | COc1ccc(C2CNC(=O)C2)cc1OC1CCCC1 (stereo unspecified) | 85.8% | 92.4% | 92% | 103% | 109% | 95.1% | 92.5% | 100% | 92.4% | 91.8% | 107% | 78.4% | 105% | 91.4% | 97.7% | 122% | 105% | 105% | 112% | 101% | 99.6% | 106% | 92.1% | 94.5% | 93.8% | 95.2% | 102% | 96.7% | 104% | 94.7% | 104% | 98.7% | 94.9%
3 | CCOC(=O)\C1=C(/C)N\C2=C(C1C3=CC=C(C=C3)C4=CC=CC=C4)\C(=O)CC(C)(C)C2 (stereo unspecified) | 107% | 103% | 102% | 108% | 105% | 109% | 103% | 102% | 106% | 87% | 88.2% | 125% | 97.2% | 125% | 117% | 116% | 114% | 102% | 102% | 106% | 82.3% | 73.6% | 110% | 103% | 111% | 114% | 113% | 95.1% | 104% | 112% | 90.1% | 73.7% | 74.8%
4 | O=C(Nc1ccc(F)c(C(F)(F)F)c1)Nc1nnc(-c2ccncc2)s1 | 123% | 113% | 124% | 106% | 114% | 105% | 121% | 102% | 108% | 107% | 101% | 112% | 120% | 127% | 130% | 134% | 136% | 118% | 112% | 118% | 108% | 111% | 119% | 124% | 128% | 124% | 125% | 131% | 113% | 128% | 116% | 114% | 100%
5 | CC(N)C12CC3CC(CC(C3)C1)C2 (stereo unspecified) | 104% | 118% | 122% | 111% | 108% | 116% | 126% | 112% | 112% | 53.4% | 49.2% | 99.4% | 120% | 116% | 113% | 117% | 104% | 126% | 109% | 104% | 85.1% | 80.2% | – | – | – | – | – | – | – | – | – | – | –
6 | Nc1nc(N)c2nc(CNc3ccc(C(=O)NC(CCC(=O)O)C(=O)O)cc3)cnc2n1 (stereo unspecified) | 97.1% | 95.9% | 103% | 102% | 92.9% | 118% | 103% | 106% | 112% | 133% | 117% | 105% | 123% | 118% | 112% | 97.5% | 70.4% | 49.8% | 57.1% | 57.4% | 61.4% | 65.2% | 119% | 117% | 118% | 131% | 72.7% | 42.9% | 38.3% | 45% | 46% | 38.9% | 40.1%
7 | CNC[C@H](O)c1ccc(O)c(O)c1 | 84.7% | 89.8% | 83% | 87.6% | 84.6% | 80.5% | 90.7% | 89.9% | 80% | 76.7% | 77.9% | 112% | 95.6% | 104% | 104% | 96.9% | 102% | 88.1% | 89.2% | 86.3% | 77.1% | 73% | 84.2% | 90.4% | 93.8% | 85.6% | 95.9% | 91.3% | 84.2% | 75.5% | 84.6% | 76.5% | 77.7%
8 | S=P(N1CC1)(N1CC1)N1CC1 | 92.8% | 102% | 95.7% | 96.4% | 103% | 95.7% | 92.7% | 95.5% | 101% | 90.2% | 89.8% | 107% | 105% | 99% | 104% | 98.5% | 98.6% | 110% | 97.3% | 92.4% | 104% | 62.6% | 101% | 105% | 95.4% | 91.4% | 104% | 99.6% | 116% | 98.7% | 95.5% | 98.3% | 92.4%
